Tests used:
[1] = target: T1, PRMT5:MEP50 protein complex (Homo sapiens, UniProt O14744); assay: In vitro assay 1: PRMT5 SPA assay ("EAA"); assay type: biochemical; conditions: scintillation proximity assay, methylation of biotinylated H4(1-24) peptide, 3H-SAM, 60 min at 22° C.
T1 construct: FLAG (N); made in house; host or cells: Hi5 insect cells
Text: In Vitro Assay 1: PRMT5 SPA Assay (“EAA”)
PRMT5 inhibitory activities of the compounds described in the present invention were quantified using a scintillation proximity assay (SPA) which measures methylation by the enzyme of a synthetic, biotinylated peptide corresponding to the N-terminal sequence of Histone H4 (a.a. 1-24). The peptide of sequence […]-K(Btn)-amide is commercially available (e.g. from Biosyntan) and will be herein referred to as H4(1-24). The PRMT5:MEP50 protein complex used in the assay was produced in house following standard protocols. Briefly, full length PRMT5 and MEP50 constructs respectively tagged with N-terminal FLAG and 6× His sequences were co-expressed in Hi5 insect cells, and the recombinant protein complex was purified by FLAG affinity and size exclusion chromatography.
In a typical assay 11 different concentrations of each compound (0.1 nM, 0.33 nM, 1.1 nM, 3.8 nM, 13 nM, 44 nM, 0.15 μM, 0.51 μM, 1.7 μM, 5.9 μM and 20 μM) were tested in duplicate within the same microtiter plate. To this end, 100-fold concentrated compound solutions (in DMSO) were previously prepared by serial dilution (1:3.4) of 2 mM stocks in a clear low volume 384-well source microtiter plate (Greiner Bio-One), from which 50 nl of compounds were transferred into a white low volume test microtiter plate from the same supplier. Subsequently, 2.5 μL PRMT5 in aqueous assay buffer [20 mM Bicine pH 8.0 (Alfa Aesar), 7.5 mM Tris(2-carboxyethyl) phosphine hydrochloride (TCEP, Sigma), 0.1% (w/v) bovine gamma globuline (BGG, Sigma), 0.002% (v/v) Tween-20 (Sigma)] were added to the compounds in the test plate to a final enzyme concentration of—typically—7.5 nM (this parameter was adjusted depending on the activity of the enzyme lot in order to be within the linear dynamic range of the assay). The samples were then incubated for 15 min at 22° C. to allow pre-equilibration of the putative enzyme-inhibitor complexes before the start of the methylation reaction, which was initiated by the addition of 2.5 μL 2-fold concentrated solution (in assay buffer) of “cold” S-Adenosyl-L-Methionine (SAM, Sigma, final concentration: 0.5 μM), tritiated 3H-SAM (Perkin Elmer, final concentration: 0.5 μM) and H4(1-24) peptide substrate (final concentration: 0.06 μM). The resulting mixture (5 μL final volume) was shortly centrifuged (2 min., 1500 rpm) and incubated at 22° C. during 60 min. Thereupon the reaction was stopped by adding 3 μL of Streptavidin PS SPA imaging beads (Perkin Elmer, final concentration of 0.375 μg/μL) and “cold” SAM (AK Scientific, 250 μM final concentration) for non-specific binding reduction. Plates containing the stopped reaction were sealed with transparent adhesive foil (Perkin Elmer), centrifuged (2 min., 1500 rpm), and further incubated either 1 h at 22° C. or overnight at 4° C. in order to allow the SPA signals to develop. Subsequently, the amount of product was evaluated by measuring the energy transfer from the β-particles emitted by the 3H-labeled substrate to the Europium scintillator co-polymerized in the polystyrene matrix of the PS imaging beads, using the standard settings for this purpose of a Viewlux (Perkin-Elmer) CCD plate imaging device (emission filter 613/55 (IFP).
The resulting scintillation counts were taken as indicator for the amount of methylated peptide per well. The data were normalised using two sets of control wells (typically 16 each) for high—(=enzyme reaction with DMSO instead of test compound=0%=minimum inhibition) and low—(=all assay components without enzyme=100%=maximum inhibition) PRMT5 activity. IC50 values were calculated by fitting the normalized inhibition data to a 4-parameter logistic equation using the “Screener” analysis software from Genedata.

[2] = test system: PRMT5 (histone H4 Arg3 SDMA levels in MDA-MB-468 cells); assay: In vitro assay 2: quantification of SDMA (symmetric dimethylarginine) expression levels (H4 Arg3) in cancer cells, High-Content Analysis; assay type: cell-based; conditions: Homo sapiens, 72 h, SDMA histone H4 (Arg3) average signal intensity per cell
Text: In Vitro Assay 2: Quantification of SDMA (Symmetric Dimethylarginine) Expression Levels (H4 Arg3) After Small Molecule Treatment of Cancer Cells
The SDMA-assay based on High-Content Analysis (HCA) enables the biological characterization of compounds inhibiting PRMT5. By this assay, substances are benchmarked on their cellular activity to modulate histone H4 Arg3 levels over broad inhibitor concentration ranges.
Cultivated cells of the human mammary gland tumor cell line MDA-MB-468 (ATCC HTB-132) were plated at a density of 2500 cells per well in a 384-well microtiter plate in 20 μL of Roswell Park Memorial Institute (RPMI) 1640 medium supplemented with 1% (v/v) glutamine, 1% (v/v) penicillin, 1% (v/v) streptomycin and 10% (v/v) fetal calf serum. After pre-incubation at 37° C. overnight, test compo unds solubilized in DMSO were added at various concentrations (0 μM, as well as in the range of 0.005 μM-30 μM; the final concentration of the solvent DMSO was 0.5% (v/v)). Cells were incubated at 37° C. for 72 h in the presence of test compounds. Thereafter, cells were fixed with 4% (v/v) paraformaldehyde in phosphate buffered saline (PBS) at room temperature for 1 h, permeabilized using 0.5% (v/v) Triton X™ 100 in PBS for 15 min and blocked with 1% (v/v) bovine serum albumin (BSA) in PBS for 30 min. In the following, cells were incubated with anti-dimethyl-histone H4 (Arg3) symmetric antibody (Millipore #07-947) at RT for 2 h. After a single washing step with blocking solution, cells were incubated with species-specific fluorescent conjugated secondary antibody Alexa Fluor™ 488 (Jackson Immuno Research #111-546-003) at RT for 2 h.
Image acquisition for cells was carried out using the confocal imaging system OPERA® (PerkinElmer). Images were captured using two channels: Hoechst 33342 stain (DNA) and Alexa Fluor™ 488 (SDMA staining); and were analyzed using the MetaXpress® software (Molecular Devices). Exposure times were chosen for individual experiments to prevent saturation and allow for quantification in the linear range. A minimum of 500 cells in 5 field views were analyzed per well using 10× water immersion objective with a two-fold binning.
The image analysis routine was developed in MetaXpress®. The standardized image-analysis module “Count Nuclei” and the images of the DNA-channel were used for nuclei segmentation. The segmented nuclei were filtered for size, shape and signal intensity to exclude possible apoptotic and non-viable cells along with metaphase nuclei. These phenotypes result in overestimated antibody signals, due to their strong chromatin compaction. For further processing, binary object masks were calculated from the segmented and positively selected nuclei. The binary masks served as templates to be superimposed over the images of the SDMA channel. The SDMA average signal intensity per cell was quantified for every image set. The assay raw data were further analyzed by four parameter logistic regression analysis using Genedata's Assay Analyzer® and Condoseo® software to determine the IC50 value for each tested compound.

T1 sequence (O14744 whole entry, species assumed): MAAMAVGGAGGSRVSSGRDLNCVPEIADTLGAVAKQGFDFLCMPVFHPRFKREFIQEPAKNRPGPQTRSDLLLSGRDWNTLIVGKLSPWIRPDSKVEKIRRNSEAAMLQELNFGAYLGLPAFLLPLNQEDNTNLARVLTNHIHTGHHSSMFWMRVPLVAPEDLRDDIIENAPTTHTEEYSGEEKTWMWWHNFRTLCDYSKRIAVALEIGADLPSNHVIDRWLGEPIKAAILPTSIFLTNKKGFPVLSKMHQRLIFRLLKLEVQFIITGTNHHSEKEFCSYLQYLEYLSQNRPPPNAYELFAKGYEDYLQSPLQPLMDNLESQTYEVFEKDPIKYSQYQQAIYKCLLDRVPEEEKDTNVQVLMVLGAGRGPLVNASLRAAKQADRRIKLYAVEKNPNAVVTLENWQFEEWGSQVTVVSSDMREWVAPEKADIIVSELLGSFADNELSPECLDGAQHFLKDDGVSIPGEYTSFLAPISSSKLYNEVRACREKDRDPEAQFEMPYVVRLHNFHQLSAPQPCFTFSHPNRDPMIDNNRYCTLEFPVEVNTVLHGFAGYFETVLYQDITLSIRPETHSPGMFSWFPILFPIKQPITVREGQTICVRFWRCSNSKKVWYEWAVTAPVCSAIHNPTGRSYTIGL
T1 sequence (Q9BQA1 whole entry partner, species assumed): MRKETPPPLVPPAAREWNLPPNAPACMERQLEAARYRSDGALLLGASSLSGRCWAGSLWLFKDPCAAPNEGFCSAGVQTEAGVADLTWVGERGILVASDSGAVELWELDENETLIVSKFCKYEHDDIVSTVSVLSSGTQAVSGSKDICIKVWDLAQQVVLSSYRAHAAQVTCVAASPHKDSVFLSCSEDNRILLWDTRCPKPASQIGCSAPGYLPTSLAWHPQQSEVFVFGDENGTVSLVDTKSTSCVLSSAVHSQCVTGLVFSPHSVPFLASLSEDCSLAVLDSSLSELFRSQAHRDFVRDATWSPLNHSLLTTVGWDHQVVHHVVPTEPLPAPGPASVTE

Row | IC50 [1] [µM] | IC50 [2] [µM] | Structure (SMILES)
1 | 0.941 | 23.4 | CCN(CC)CCOc1cc(NC(=O)c2csc(Nc3ccccc3)n2)ccc1-c1ccc(C)cc1 [Example 22, N-{2-[2-(Diethylamino)ethoxy]-4′-methylbiphenyl-4-yl}-2-(phenylamino)-1,3-thiazole-4-carboxamide]
2 | 1.61 | 23.2 | Cn1ccc(NC(=O)c2csc(Nc3ccccc3)n2)n1 [Example 23, N-(1-Methyl-1H-pyrazol-3-yl)-2-(phenylamino)-1,3-thiazole-4-carboxamide]
